Entries after “also recorded” stand apart in the source; their conditions may differ.
Key:
[1] = tested on: HepG2 cells; assay: Confocal microscopy: lipid droplets in oleate induced HepG2 cells; assay type: cell-based; design: key to Reduction in Lipid Droplets: + = slight or in insignificant; ++ = Moderate; +++ and ++++ = active; +++ and ++++ = active; +++++ = very active; settings: for Reduction in Lipid Droplets: oleate induced HepG2 cells, score
Description: (§1) To select the compounds capable of inhibiting the ubiquitination of ATGL by COP1 by targeting the VP motif, confocal microscopy was performed with the provided molecules. If the compound was effective in inhibiting the interaction, there would be a reduction in the number of fat droplets in the cells after treatment. […] With this rationale in mind, HepG2 cells were induced to accumulate lipid droplets after treatment with 250 µM of oleate and 10 μM of the specific compounds were added. The potential of the compounds to bring about a reduction in the number of fat droplets was then checked by comparison with oleate induced cells by counting number of droplets of approximately 20 cells from each treatment and calculating the average number of lipid droplets of each cell. The selected compounds were then subjected to dose dependent treatments and the ones which could maintain its potency to reduce fat droplets at lower doses were then selected for western blot analysis. The compound which could reduce the number of fat droplets in the cells are expected to raise the levels of ATGL since they are likely to deter COP1 from ubiquitinating ATGL. This increase will be visible only in the protein level and gene expression is likely to remain unchanged since ubiquitination is a […] modification. Thus, western blot was performed to check ATGL levels in the cells with the selected molecules.
HepG2 cells were plated in confocal dishes (SPL, Genetix Biotech Asia Pvt. Ltd.). The cells were allowed to adhere and divide for 16 hours. 10 μM for initial screening and 10 nM, 20 nM, 50 nM, 100 nM, 200 nM, 500 nM, 1 μM and 5 μM for dose dependent assays of the compounds 9 and 107 were dissolved in DMSO and added to the cells. 250 μM of oleate was used for induction. BSA (Sigma Aldrich) was used as a negative control. Post 24 hours of treatment, media was decanted from the cells and washed with 1×PBS solution to remove any remnant. 200 μl of staining solution containing 200 ng/ml BODIPY (Invitrogen) and 25 µg/ml HOECKST342 (Invitrogen) were added to the cells and incubated at 37° C. for 30 minutes under dark conditions. Cells were washed 3 times with 1×PBS to remove excess stain. FLUOVIEW FV10i (Olympus) was used to visualise the cells.

[2] = tested on: ATGL; assay: Western blot of ATGL level in HepG2 cells; assay type: cell-based; design: key to Increase in ATGL level: + = slight or in insignificant; ++ = Moderate; +++ and ++++ = active; +++ and ++++ = active; +++++ = very active; settings: western blot; for Increase in ATGL level: HepG2 cells, score; for ATGL level in HepG2 cells: 24 hours, 10 μM screening or 50 nM-5 μM dose dependent
Description: as §1
HepG2 cells were treated with the compounds 9, 10, 11, 17, 18, 23, 24, 115, 123, 127, 139,107, 171, 179, 73, 187, 211, 215, 219, 223, 232, 238, 241, 244, 258, 299, 308, and 333a, (10 μM for initial screening and 50 nM, 100 nM, 200 nM, 500 nM, 1 μM and 5 μM for dose dependent assays) for 24 hours. After removing media from the cells, the wells were washed with 1×PBS twice to remove any remnant media. Cells were then lysed in lysis buffer containing 50 mM Tris-HCl (pH 7.4), 100 mM NaCl, 1 mM EDTA, 1 mM EGTA, 1% Triton X-100 and protease inhibitor cocktail (Millipore, Billierica, MA, USA). Following centrifugation at 20,000 g for 20 minutes, the protein solution was extracted from the cells. Protein was estimated using Bradford assay. Bradford's reagent (BioRad) was diluted in 1:4 ratio in double distilled water. 2 μl of protein sample was added to 100 μl of the reagent and absorbance was measured at 595 nm. […] of protein was diluted in lysis buffer. 1× loading buffer diluted from 5× stock containing 250 mM Tris-HCl (pH 6.8), 10% SDS, 50% glycerol, 0.1% bromophenol Blue and 10% β-mercaptoethanol was added. The protein samples were then heated at 95° C. for 10 minutes, cooled and centrifuged at 12,000 g for 2 minutes prior to loading.
For western blotting, the proteins were resolved in 10% SDS PAGE (discontinuous buffer system). 1× running buffer containing SDS, Tris Base and Glycine was used to run the gel at 80V for approximately 2 hours. Transfer was done using PVDF membrane (Millipore) having pore size of 0.45 μm. 1× transfer buffer containing Tris-Base, Glycine and 20% methanol was used for wet transfer. Transfer was done at 90V for 3 hours. Following transfer, the PVDF membrane containing the proteins were washed in 1×PBST comprising of 1×PBS and 1% Tween 20 (Sigma Aldrich). The membrane was then incubated for 1 hour at room temperature in 5% skim milk powder to block the non-specific sites. Following multiple washes with 1×PBST to wash away any remaining blocking buffer, the required primary antibody (COP1 [Bethyl Laboraties], ATGL [Cell Signalling Technology] or Actin[Cell Signalling Technology]) prepared with 1×PBST, 1% Bovine Serum Albumin and 0.04% Sodium Azide was added to the membrane and incubated overnight at 4° C. The next day, the membrane was again washed multiple times with 1×PBST to remove any unbound primary antibody. The membrane was then incubated with goat anti-rabbit secondary antibody (Genei) for 1 hour at room temperature and washed again for multiple times with 1×PBST. […]

## COCCn1cnc2ccc(NC(=O)Nc3ccccc3)cc2c1=O [Compound 5, 1-(3-(2-methoxyethyl)-4-oxo-3,4-dihydroquinazolin-6-yl)-3-phenylurea]
[1]
  Reduction in Lipid Droplets: ++
[2]
  Increase in ATGL level: ++

## COCCn1cnc2ccc(NC(=O)Nc3cccc(OC)c3)cc2c1=O [Compound 6, 1-(3-(2-methoxyethyl)-4-oxo-3,4-dihydroquinazolin-6-yl)-3-(3-methoxyphenyl)urea]
[1]; HepG2 cells, 250 μM oleate induction
  Number of lipid droplets: reduction of lipid droplet
[1]
  Reduction in Lipid Droplets: ++++
[2]
  Increase in ATGL level: ++++
  ATGL level in HepG2 cells: increase in ATGL level

## COCCn1cnc2ccc(NC(=O)Nc3cccc([N+](=O)[O-])c3)cc2c1=O [Compound 8, 1-(3-(2-methoxyethyl)-4-oxo-3,4-dihydroquinazolin-6-yl)-3-(3-nitrophenyl)urea]
[1]
  Reduction in Lipid Droplets: ++
[2]
  Increase in ATGL level: +

## COCCn1cnc2ccc(NC(=O)Nc3cccc(C(C)O)c3)cc2c1=O (stereo not shown) [Compound 11, 1-(3-(1-hydroxyethyl)phenyl)-3-(3-(2-methoxyethyl)-4-oxo-3,4-dihydroquinazolin-6-yl)urea]
[1]
  Reduction in Lipid Droplets: +
[2]
  Increase in ATGL level: +
  ATGL level in HepG2 cells: increased ATGL level

## COCCn1cnc2ccc(NC(=O)Nc3cc(C(=O)OC)ccc3OC)cc2c1=O [Compound 12, methyl 4-methoxy-3-(3-(3-(2-methoxyethyl)-4-oxo-3,4-dihydroquinazolin-6-yl)ureido)benzoate]
[1]
  Reduction in Lipid Droplets: ++
[2]
  Increase in ATGL level: +++

## CCc1cccc(NC(=O)Nc2ccc3ncn(CCOC)c(=O)c3c2)c1 [Compound 13, 1-(3-ethylphenyl)-3-(3-(2-methoxyethyl)-4-oxo-3,4-dihydroquinazolin-6-yl)urea]
[1]
  Reduction in Lipid Droplets: +
[2]
  Increase in ATGL level: +

## COCCn1cnc2ccc(NC(=O)Nc3cccc(C(=O)c4ccccc4)c3)cc2c1=O [Compound 14, 1-(3-benzoylphenyl)-3-(3-(2-methoxyethyl)-4-oxo-3,4-dihydroquinazolin-6-yl)urea]
[1]
  Reduction in Lipid Droplets: +
[2]
  Increase in ATGL level: +

## COCCn1cnc2ccc(NC(=O)Nc3cccc(C(=O)NC4CCCCC4)c3)cc2c1=O [Compound 15, N-cyclohexyl-3-(3-(3-(2-methoxyethyl)-4-oxo-3,4-dihydroquinazolin-6-yl)ureido)benzamide]
[1]
  Reduction in Lipid Droplets: +
[2]
  Increase in ATGL level: ++++

## COCCn1cnc2ccc(NC(=O)Nc3cccc(C(=O)NC(C(=O)OC)C(C)C)c3)cc2c1=O (stereo not shown) [Compound 16, methyl 2-(3-(3-(3-(2-methoxyethyl)-4-oxo-3,4-dihydroquinazolin-6-yl)ureido)benzamido)-3-methylbutanoate]
[1]
  Reduction in Lipid Droplets: +++
[2]
  Increase in ATGL level: ++++

## COCCn1cnc2ccc(NC(=O)Nc3cccc(C(=O)N(C)C)c3)cc2c1=O [Compound 17, 3-(3-(3-(2-methoxyethyl)-4-oxo-3,4-dihydroquinazolin-6-yl)ureido)-N,N-dimethylbenzamide]
[1]
  Reduction in Lipid Droplets: +++
[2]
  Increase in ATGL level: +++
  ATGL level in HepG2 cells: increased ATGL level; also recorded: ability to increase ATGL level

## COCCn1cnc2ccc(NC(=O)Nc3cccc(C(=O)N4CCCC4)c3)cc2c1=O [Compound 18, 1-(3-(2-methoxyethyl)-4-oxo-3,4-dihydroquinazolin-6-yl)-3-(3-(pyrrolidine-1-carbonyl)phenyl)urea]
[1]
  Reduction in Lipid Droplets: +
[2]
  Increase in ATGL level: ++++
  ATGL level in HepG2 cells: increased ATGL level; also recorded: ability to increase ATGL level

## COCCn1cnc2ccc(NC(=O)Nc3cccc(C(=O)N4CCOCC4)c3)cc2c1=O [Compound 19, 1-(3-(2-methoxyethyl)-4-oxo-3,4-dihydroquinazolin-6-yl)-3-(3-(morpholine-4-carbonyl)phenyl)urea]
[1]
  Reduction in Lipid Droplets: ++
[2]
  Increase in ATGL level: +
  ATGL level in HepG2 cells: ability to increase ATGL level

## COCCn1cnc2ccc(NC(=O)Nc3ccc(C(=O)N4CCCC4)cc3)cc2c1=O [Compound 20, 1-(3-(2-methoxyethyl)-4-oxo-3,4-dihydroquinazolin-6-yl)-3-(4-(pyrrolidine-1-carbonyl)phenyl)urea]
[1]
  Reduction in Lipid Droplets: ++
[2]
  Increase in ATGL level: ++
  ATGL level in HepG2 cells: ability to increase ATGL level

## COCCn1cnc2ccc(NC(=O)Nc3cccc(-c4nc5ccccc5o4)c3)cc2c1=O [Compound 21, 1-(3-(benzo[d]oxazol-2-yl)phenyl)-3-(3-(2-methoxyethyl)-4-oxo-3,4-dihydroquinazolin-6-yl)urea]
[1]
  Reduction in Lipid Droplets: +
[2]
  Increase in ATGL level: +

## COCCn1cnc2ccc(NC(=O)Nc3cccc(NC(C)=O)c3)cc2c1=O [Compound 22, N-(3-(3-(3-(2-methoxyethyl)-4-oxo-3,4-dihydroquinazolin-6-yl)ureido)phenyl)acetamide]
[1]
  Reduction in Lipid Droplets: +
[2]
  Increase in ATGL level: +

## COCCn1cnc2ccc(NC(=O)Nc3cccc(N(C)C(C)=O)c3)cc2c1=O [Compound 23, N-(3-(3-(3-(2-methoxyethyl)-4-oxo-3,4-dihydroquinazolin-6-yl)ureido)phenyl)-N-methylacetamide]
[1]
  Reduction in Lipid Droplets: ++
[2]
  Increase in ATGL level: ++++
  ATGL level in HepG2 cells: increased ATGL level

## COCCn1cnc2ccc(NC(=O)Nc3cccc(N(Cc4ccccc4)C(C)=O)c3)cc2c1=O [Compound 24, N-benzyl-N-(3-(3-(3-(2-methoxyethyl)-4-oxo-3,4-dihydroquinazolin-6-yl)ureido)phenyl)acetamide]
[1]
  Reduction in Lipid Droplets: +
[2]
  Increase in ATGL level: ++++
  ATGL level in HepG2 cells: increased ATGL level

## COCCn1cnc2ccc(NC(=O)Nc3ccc(F)cc3)cc2c1=O [Compound 35, 1-(4-fluorophenyl)-3-(3-(2-methoxyethyl)-4-oxo-3,4-dihydroquinazolin-6-yl)urea]
[1]
  Reduction in Lipid Droplets: +
[2]
  Increase in ATGL level: +

## COCCn1cnc2ccc(NC(=O)Nc3ccc(F)c(Cl)c3)cc2c1=O [Compound 36, 1-(3-chloro-4-fluorophenyl)-3-(3-(2-methoxyethyl)-4-oxo-3,4-dihydroquinazolin-6-yl)urea]
[1]
  Reduction in Lipid Droplets: +
[2]
  Increase in ATGL level: +++

## COCCn1cnc2ccc(NC(=O)Nc3ccc(OC(F)(F)F)cc3)cc2c1=O [Compound 37, 1-(3-(2-methoxyethyl)-4-oxo-3,4-dihydroquinazolin-6-yl)-3-(4-(trifluoromethoxy)phenyl)urea]
[1]
  Reduction in Lipid Droplets: +
[2]
  Increase in ATGL level: +

— US12528777B2, “Quinazolinones derivatives for treatment of non-alcoholic fatty liver disease, preparation and use thereof” (Council of Scientific and Industrial Research, priority 2020, dated 2026)
